Results on three compounds are retold here after patent US5948816A, “4-substituted-2,7-dideoxy-7-fluoro-2,3-didehydro-sialic acid compounds” (priority 1996, dated 1999).

pIC50: −log10 of the molar value. Structures can show the parent of a compound that is named as a salt.

The target of the assay is sialidase (Influenza A virus, UniProt P03468). Put plainly: Influenza virus sialidase inhibition (free sialic acid released from α 2-3 sialyl-lactose, pH 5.2, 37° C., densitometry). The class given is biochemical, Influenza virus A/PR/8/34. To be noted: for pIC50: α 2-3 sialyl-lactose substrate, pH 5.2, 37° C., 10 minutes.
Sequence of sialidase (P03468 whole entry): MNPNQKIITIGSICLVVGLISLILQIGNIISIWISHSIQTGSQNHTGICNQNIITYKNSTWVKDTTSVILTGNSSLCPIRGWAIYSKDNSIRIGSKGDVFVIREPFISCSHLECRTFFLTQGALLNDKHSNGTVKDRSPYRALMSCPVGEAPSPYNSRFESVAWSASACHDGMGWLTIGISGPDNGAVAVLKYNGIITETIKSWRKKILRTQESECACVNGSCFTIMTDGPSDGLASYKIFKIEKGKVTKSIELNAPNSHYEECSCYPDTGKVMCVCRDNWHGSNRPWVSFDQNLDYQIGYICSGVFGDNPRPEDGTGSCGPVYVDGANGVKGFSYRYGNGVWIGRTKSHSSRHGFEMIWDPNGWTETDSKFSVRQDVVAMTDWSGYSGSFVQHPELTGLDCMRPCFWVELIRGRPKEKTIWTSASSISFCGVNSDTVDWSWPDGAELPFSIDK

Broadly, the pIC50 is the negative decadic logarithm of the IC50, by convention in mol/L. On to `CC(=O)N[C@H]1[C@H]([C@H](O)[C@H](O)CO)OC(C(=O)O)=C[C@@H]1N` [4-Amino-2,3-didehydrosialic acid, 4-amino-2,3-didehydrosialic acid], for which the negative logarithm of the IC50 (pIC50) was 5.82.
The same measure, in the same setting: the same measure for `CC(=O)N[C@H]1[C@H]([C@H](F)[C@H](O)CO)OC(C(=O)O)=C[C@@H]1O` [7-Fluoro-2,3-didehydrosialic acid]: 5.54.
With `CC(=O)N[C@H]1[C@H]([C@H](F)[C@H](O)CO)OC(C(=O)O)=C[C@@H]1N` [5-Acetamide-4-amino-2,6-anhydro-7-fluoro-3,4,5,7-tetradeoxy-D-glycero-D-galacto-non-2-enonic acid Sodium salt], the sialidase inhibitory activity entry is given as “very potent” and the pIC50 is 6.30.
